Results reported in PMC11199504, “New hemisynthetic derivatives of sphaeropsidin phytotoxins triggering severe endoplasmic reticulum swelling in cancer cells” (Scientific Reports, 2024).
Like-named read-outs stand apart in the source and are kept apart here.

Legend:
[1] = tested on: 60 cancer cell line panel; conditions: NCI database value; ref NCI database; read-out: LC50 (NCI); cited from earlier work
[2] = tested on: Hs683; test: MTT colorimetric assay, Hs683; type: cell-based; conditions: Homo sapiens, Hs 683; 72 h treatment; mean ± SEM; sensitive to apoptosis; read-out: IC50 determined by MTT assays, Hs683
Excerpt: (§1) Cancer cell lines were obtained from either the European Collection of Cell Cultures (ECACC; Salisbury, UK) or the American Type Culture Collection (ATCC; Manassas, VA). The two glioma cell lines were the U373 (ECACC code 08061901) and Hs683 (ATCC HTB-138) cell lines. The carcinoma cell lines were the A549 non-small cell carcinoma cell line (ATCC code CCL 185) and the MCF-7 mammary breast carcinoma cell line (ATCC code HTB-22). The melanoma cell lines were the mouse B16F10 cells (ATCC code CRL-6475) and the human SKMEL-28 cells (ATCC code HTB-72). The ovarian cancer cell line A2780 and its cisplatin-resistant subline A2780cis were obtained from Sigma-Aldrich (St. Louis, MO, USA). Colon cancer HCT116 cells were obtained from ATCC (CCL-247) and the oxaliplatin-resistant subline HCT116/OxR established in the W. Berger lab[59]. The HeLa cell derivative KB-3-1 and the colchicine-selected, highly ABCB1-overexpressing subline KB-C-1 were generously donated by Dr. D. W. Shen, Bethesda, MD. RKOp53wt colon cancer cells together with the RKOp53KO (homozygous knock-out) subline[60] were generously provided by Dr. Vogelstein from John Hopkins University, Baltimore. The correct origin of all cell models was confirmed by STR during performance of the experiments. All cell lines were cultured in RPMI1640 culture medium supplemented with 10% heat-inactivated fetal bovine serum, 2% L-glutamine (0.6 mg/mL), 2% penicillin/streptomycin (200 IU/mL and 200 μg/mL) and 0.1 mg/mL gentamicin.
(§2) The MTT (3-(4,5-dimethylthiazol-2-yl)-2,5-diphenyl tetrazolium bromide) colorimetric assay has been conducted as described previously. Briefly, cells were seeded 24 h before their treatment with each compound for a period of 72 h. The concentrations tested ranged from 10 nM to 100 µM. Each assay was conducted in sextuplicates. The number of independent experiments is mentioned in the legend of the tables.

[3] = tested on: A549, SKMEL-28, U373, MCF7, Hs683, B16F10; test: MTT colorimetric assay, mean of the six cell lines; type: cell-based; conditions: for IC50: mean over the six cell lines, 72 h treatment, read-out: IC50 determined by MTT assays, Mean; for activity in the cancer cell panel: MTT, alone
Excerpt: as §1, §2

[4] = tested on: U373; test: MTT colorimetric assay, U373; type: cell-based; conditions: Homo sapiens, U373 MG; 72 h treatment; mean ± SEM; resistant to apoptosis; read-out: IC50 determined by MTT assays, U373
Excerpt: as §1, §2

[5] = tested on: B16F10; test: MTT colorimetric assay, B16F10; type: cell-based; conditions: Mus musculus, B16-F10; 72 h treatment; mean ± SEM; sensitive to apoptosis; read-out: IC50 determined by MTT assays, B16F10
Excerpt: as §1, §2

[6] = tested on: MCF7; test: MTT colorimetric assay, MCF7; type: cell-based; conditions: Homo sapiens, 72 h treatment, mean ± SEM, sensitive to apoptosis, read-out: IC50 determined by MTT assays, MCF7
Excerpt: as §1, §2

[7] = tested on: SKMEL-28; test: MTT colorimetric assay, SKMEL-28; type: cell-based; conditions: Homo sapiens, SK-MEL-28; 72 h treatment; mean ± SEM; resistant to apoptosis; read-out: IC50 determined by MTT assays, SKMEL-28
Excerpt: as §1, §2

[8] = tested on: A549; test: MTT colorimetric assay, A549; type: cell-based; conditions: Homo sapiens, 72 h treatment, mean ± SEM of six replicates of one experiment (1: 7, 13: 6 independent experiments), resistant to apoptosis, read-out: IC50 determined by MTT assays, A549
Excerpt: as §1, §2

[9] = tested on: RKO/P53wt; test: MTT assay, RKO/P53wt (parental sensitive); type: cell-based; conditions: 72 h treatment; ± standard deviation; parental sensitive model; read-out: IC50 determined by MTT assays, RKO/P53wt
Excerpt: as §1, §2
(§3) SI Table 1: IC50 determined by MTT assays. Mean concentration (± standard deviation) in µM required to
(§4) reduce the viability of cells by 50% after a 72 h treatment relative to the control.
(§5) Parental sensitive models Drug-resistant models

[10] = tested on: A2780R; test: MTT assay, A2780R (cisplatin-resistant); type: cell-based; conditions: 72 h treatment; ± standard deviation; drug-resistant model; read-out: IC50 determined by MTT assays, A2780R
Excerpt: as §1, §2, §3, §4, §5

[11] = tested on: A2780; test: MTT assay, A2780 (parental sensitive); type: cell-based; conditions: 72 h treatment; ± standard deviation; parental sensitive model; read-out: IC50 determined by MTT assays, A2780
Excerpt: as §1, §2, §3, §4, §5

[12] = tested on: RKO/p53ko; test: MTT assay, RKO/p53ko; type: cell-based; conditions: 72 h treatment; ± standard deviation; drug-resistant model; read-out: IC50 determined by MTT assays, RKO/p53ko
Excerpt: as §1, §2, §3, §4, §5

[13] = tested on: KB-C-1; test: MTT assay, KB-C-1 (ABCB1-overexpressing); type: cell-based; conditions: KBC-1, 72 h, read-out: IC50 determined by MTT assays, KB-C-1
Excerpt: as §1, §2, §3, §4, §5

[14] = tested on: KB-3-1; test: MTT assay, KB-3-1 (parental sensitive); type: cell-based; conditions: Homo sapiens, KB 3-1, 72 h, read-out: IC50 determined by MTT assays, KB-3-1
Excerpt: as §1, §2, §3, §4, §5

[15] = tested on: Hct116/OxR; test: MTT assay, Hct116/OxR (oxaliplatin-resistant); type: cell-based; conditions: 72 h treatment; ± standard deviation; drug-resistant model; read-out: IC50 determined by MTT assays, Hct116/OxR
Excerpt: as §1, §2, §3, §4, §5

[16] = tested on: Hct116; test: MTT assay, Hct116 (parental sensitive); type: cell-based; conditions: 72 h treatment; ± standard deviation; parental sensitive model; read-out: IC50 determined by MTT assays, Hct116
Excerpt: as §1, §2, §3, §4, §5

Compound | CC50 [1] | IC50 [2] | IC50 ([3]; 72 h) | IC50 [4] | IC50 [5] | IC50 [6] | IC50 [7] | IC50 [8] | also measured
CC(=O)N(C)c1ccc(Nc2cc(C)nc3ccc4[nH]cnc4c23)cc1 [Acodazole] | 114 µM | – | – | – | – | – | – | – | –
COc1cc(NS(C)(=O)=O)ccc1Nc1c2ccccc2nc2ccccc12 [Amsacrine] | 25 µM | – | – | – | – | – | – | – | –
CNC(=O)ON(C(C)=O)C(=O)NC [Caracemide] | 625 µM | – | – | – | – | – | – | – | –
C=CC1(C)C=C2C(=O)C3(OC(=O)CCCCC(=O)O)OC(=O)C4(CCCC(C)(C)C34)C2(O)CC1 (centres unmarked) [Compound 5] | – | 1.96 ± 0.18 µM | 1.7 ± 0.19 µM | 1.82 ± 0.14 µM | 0.78 ± 0.09 µM | 2.09 ± 0.07 µM | 1.61 ± 0.11 µM | 1.92 ± 0.07 µM | –
COC(=O)CCCC=CC1(C)C=C2C(=O)C3(O)OC(=O)C4(CCCC(C)(C)C34)C2(O)CC1 (centres unmarked) [Compound 6] | – | 3.33 ± 0.1 µM | 2.64 ± 0.2 µM | 2.81 ± 0.08 µM | 1.81 ± 0.14 µM | 2.48 ± 0.13 µM | 2.74 ± 0.13 µM | 2.66 ± 0.04 µM | –
COC(=O)CCC=CC1(C)C=C2C(=O)C3(O)OC(=O)C4(CCCC(C)(C)C34)C2(O)CC1 (centres unmarked) [Compound 7] | – | 3.63 ± 0.15 µM | 5.03 ± 0.82 µM | 7.75 ± 0.31 µM | 2.33 ± 0.29 µM | 6.88 ± 0.26 µM | 5.06 ± 0.58 µM | 4.5 ± 0.07 µM | –
CC1(C=CCCCC(=O)O)C=C2C(=O)C3(O)OC(=O)C4(CCCC(C)(C)C34)C2(O)CC1 (centres unmarked) [Compound 8] | – | 85.3 ± 5.25 µM | > 94 µM | > 100 µM | 81.3 ± 2.42 µM | > 100 µM | > 100 µM | > 100 µM | activity in the cancer cell panel [3]: inactive; IC50 [3]: > 94.4 µM
CCCCC=CC1(C)C=C2C(=O)C3(O)OC(=O)C4(CCCC(C)(C)C34)C2(O)CC1 (centres unmarked) [Compound 9] | – | 1.11 ± 0.14 µM | 0.88 ± 0.16 µM | 1.39 ± 0.15 µM | 0.52 ± 0.02 µM | 0.47 ± 0.03 µM | 1.15 ± 0.11 µM | 0.63 ± 0.03 µM | –
CC1(C=CCCCCBr)C=C2C(=O)C3(O)OC(=O)C4(CCCC(C)(C)C34)C2(O)CC1 (centres unmarked) [Compound 10] | – | 4.35 ± 0.27 µM | 3.79 ± 0.54 µM | 5.01 ± 0.18 µM | 2 ± 0.12 µM | 5.36 ± 0.58 µM | 3.07 ± 0.1 µM | 2.96 ± 0.12 µM | –
CC1(C=CCCBr)C=C2C(=O)C3(O)OC(=O)C4(CCCC(C)(C)C34)C2(O)CC1 (centres unmarked) [Compound 11] | – | 2.99 ± 0.07 µM | 2.67 ± 0.15 µM | 2.81 ± 0.08 µM | 2.55 ± 0.13 µM | 2.89 ± 0.08 µM | 2.77 ± 0.18 µM | 2 ± 0.13 µM | –
CC1(C=Cc2ccccc2)C=C2C(=O)C3(O)OC(=O)C4(CCCC(C)(C)C34)C2(O)CC1 (centres unmarked) [Compound 12] | – | 2.72 ± 0.11 µM | 2.54 ± 0.22 µM | 3.06 ± 0.07 µM | 2.52 ± 0.21 µM | 3.06 ± 0.22 µM | 2.29 ± 0.09 µM | 1.61 ± 0.14 µM | –
C=CCCCc1ccc2ccc3cccc4ccc1c2c34 [Compound 14, reference compound] | – | 96.12 ± 0.5 µM | > 87.3 µM | > 100 µM | 73.1 ± 1.32 µM | 76 ± 1.55 µM | > 100 µM | 78.8 ± 1.26 µM | activity in the cancer cell panel [3]: inactive
CC1(C=CCCCCc2ccc3ccc4cccc5ccc2c3c45)C=C2C(=O)C3(O)OC(=O)C4(CCCC(C)(C)C34)C2(O)CC1 (centres unmarked) [Compound 23] | – | 0.64 ± 0.02 µM | 0.49 ± 0.07 µM | 0.66 ± 0.02 µM | 0.27 ± 0.01 µM | 0.42 ± 0.03 µM | 0.37 ± 0.01 µM | 0.6 ± 0.02 µM | –
CC1(C=CCCc2ccc3ccc4cccc5ccc2c3c45)C=C2C(=O)C3(O)OC(=O)C4(CCCC(C)(C)C34)C2(O)CC1 (centres unmarked) [Compound 24] | – | 2.4 ± 0.1 µM | 1.4 ± 0.34 µM | 2.2 ± 0.2 µM | 0.098 ± 0.04 µM | 1.2 ± 0.2 µM | 1.3 ± 0.14 µM | 1.2 ± 0.2 µM | –
COc1ccc(C(=O)/C(Br)=C\C(=O)O)cc1 [Cytembena] | 802 µM | – | – | – | – | – | – | – | –
COc1ccc2c(c1)-c1nn(CCCN(C)C)c3ccc([N+](=O)[O-])c(c13)N2 [Pyrazolo acridine] | 23.3 µM | – | – | – | – | – | – | – | –
CC/C(=C(\c1ccccc1)c1ccc(OCCN(C)C)cc1)c1ccccc1 [Tamoxifen] | 26 µM | – | – | – | – | – | – | – | –
O=c1n(CC2CO2)c(=O)n(CC2CO2)c(=O)n1CC1CO1 (centres unmarked) [Teroxirone] | 387 µM | – | – | – | – | – | – | – | –
N.N.[Cl][Pt][Cl] [cisplatin] | – | – | – | – | – | – | – | – | IC50 [9]: 2 ± 0.3 µM; IC50 [10]: > 10 µM; IC50 [11]: 1.8 ± 0.09 µM; IC50 [12]: 3.7 ± 1.2 µM
COc1cccc2c1C(=O)c1c(O)c3c(c(O)c1C2=O)C[C@@](O)(C(=O)CO)C[C@@H]3O[C@H]1C[C@H](N)[C@H](O)[C@H](C)O1 [doxorubicin] | – | – | – | – | – | – | – | – | IC50 [13]: > 250 µM; IC50 [14]: 0.059 ± 0.03 µM
O=C1[O][Pt]2([NH][C@@H]3CCCC[C@H]3[NH]2)[O]C1=O [oxaliplatin] | – | – | – | – | – | – | – | – | IC50 [15]: 22.1 ± 2.3 µM; IC50 [16]: 0.6 ± 0.08 µM
